Values quoted from earlier work in patent publication US20260284033A1, “COMBINATION THERAPY WITH LP-PLA2 INHIBITOR AND A SECOND AGENT” (SciNeuro Therapeutics Inc., priority 2023, published 2026).

Key:
AD patients = conditions: phase 2, AD patients
[1] = test system: BBB leakage animal models

| SMILES | cognitive decline (AD patients) | disease biomarkers (AD patients) | tolerability (AD patients) | BBB leakage [1] | vascular dementia pathology [1] |
| --- | --- | --- | --- | --- | --- |
| COCCN1CCC(N(Cc2ccc(-c3ccc(C(F)(F)F)cc3)cc2)C(=O)Cn2c(SCc3cccc(F)c3F)cc(=O)c3ccccc32)CC1 [rilapladib] | slowed down cognitive decline | improved disease biomarkers | well tolerated | – | – |
| CCN(CC)CCN(Cc1ccc(-c2ccc(C(F)(F)F)cc2)cc1)C(=O)Cn1c(SCc2ccc(F)cc2)nc(=O)c2c1CCC2 [darapladib] | – | – | – | reduced BBB leakage | improved vascular dementia pathology |
